PubChem BioAssay AID624404 (Broad Institute, 2012)
Inconclusive results are not listed.

Tested on: D54 LucT luciferase reporter counterscreen, luminescence, 24 h
Assay: reporter signal increase, D54 LucT cells – cell-based, luminescence, cherry pick, counter-screen for N-linked glycosylation inhibitor project, dose response (AID 624404)

| SMILES | AC35 [nM] |
| --- | --- |
| COc1cc(/C=C2\SC(=S)N(CCC(=O)N3CCCCC3)C2=O)cc(OC)c1OC | 3440 |
| Cc1ccc(N=Nc2c(N)nn(-c3ccccc3)c2N)cc1 | 56.1 |
| Cc1ccc(C(=O)N/C(=C\c2cccs2)C(=O)NCCc2c[nH]c3ccccc23)cc1C | 116 |
| Nc1nc(CN2CCN(Cc3ccccc3)CC2)nc(Nc2ccc3c(c2)OCCO3)n1 | 251 |
| Cn1nc(-c2ccccc2)c(CSc2ccccc2Cl)c1Cl | 1120 |
| O=C(COc1ccccc1)Nc1cccc(-c2cn3cccnc3n2)c1 | 1080 |
| O=C(NO)c1ccc(OC(F)F)cc1 | 1520 |
| Cc1ccc2nc(-c3ccccc3)cc(C(=O)N3CC(C)OC(C)C3)c2c1 (centres undefined) | 1920 |
| COc1ccccc1N1CCN(c2ccc3c(c2)S(=O)(=O)c2cccc(C(=O)NCC4CC4)c2C3=O)CC1 | 1190 |
| COc1cc2c(cc1OC)C(=O)N1[C@H]3c4cc(C)ccc4OC[C@@H]3[C@H](c3ccccc3)[C@]1(C)C(=O)N2 | 131 |
| Cc1noc(C)c1-c1ccc(C(=O)NCCc2ccccc2)c2occc12 | 2770 |
| NC(=O)CC(NC(=O)Cc1ccc(Br)cc1)c1ccc(NC2CC3CCC2C3)c([N+](=O)[O-])c1 (centres undefined) | 210 |
| COc1cc(C(=O)Nc2cc3c(cc2N2CCCCC2)n(C)c(=O)n3C)cc(OC)c1OC | 96.4 |
| O=C(COC(=O)c1cccc(Br)c1)Nc1cccc2c1C(=O)c1ccccc1C2=O | 1150 |
| CCC(Cc1ccccc1)NC(=O)c1ccc2nc(N3CCOCC3)sc2c1 (centres undefined) | 480 |
| CC(=O)Nc1ccc(Nc2ccc3c4c(cc(=O)n3C)-c3ccccc3C(=O)c24)cc1 | 345 |
| CCOc1ccc2[nH]c3c(N4CCc5ccccc5C4)ncnc3c2c1 | 4260 |
| O=C(NC(=C(Cl)Cl)S(=O)(=O)c1ccc(Cl)cc1)c1ccccc1 | 2160 |
| CCCOc1ccc2ccccc2c1/C=N/n1c(C)nnc1-n1nc(C)cc1C | 18.4 |
| COc1ccc2c(c1)OC[C@H]1[C@H]2N2C(=O)c3ccc(C)cc3NC(=O)[C@@]2(C)[C@H]1c1ccccc1 | 658 |
| O=C1COc2ccc(C(=O)/C=C/c3ccccc3)cc2N1 | 641 |
| Cc1ccc(-c2cc(C(=O)N/N=C/c3c[nH]c4ccccc34)[nH]n2)cc1 | 101 |
| O=c1cc(-c2ccccc2)[nH]c2ccccc12 | 2480 |
| COc1ccc(/C=C/C(=O)Oc2cccc(/C=N/NC(=O)COc3c(C)cccc3C)c2)cc1 | 3250 |
| COc1ccc(S(=O)(=O)Nc2ccc3c(c2)n(C)c(=O)n3C)cc1OC | 104 |
| COc1cccc(NC(=O)CCCOc2cc(=O)n(C)c3ccccc23)c1 | 4630 |
| COc1cc(-c2cc3nc(NCCc4ccncc4)ccn3n2)cc(OC)c1OC | 806 |

| SMILES | AC35 [nM] |
| --- | --- |
| COc1ccc(-c2cc(C(F)F)n3ncc(C(=O)n4ccnc4C)c3n2)cc1 | 2770 |
| COc1ccc(Nc2nc(N)c(C(=O)c3ccc(OC)cc3)s2)cc1 | 148 |
| O=C(N/N=C/c1ccccc1)c1sccc1OCc1ccc(F)cc1 | 3060 |
| O=C(/C=C/c1ccco1)Nc1nnc(-c2ccco2)s1 | 204 |
| COc1ccccc1-c1csc(C(NC(C)=O)c2ccccc2)n1 (centres undefined) | 643 |
| Cc1ccc2[nH]c(=O)c3cc(C(=O)NC(C)C)sc3c2c1 | 2390 |
| CCn1c2ccccc2c2cc(Nc3cc(C)nc4ncnn34)ccc21 | 420 |
| Cc1cccn2c(=O)c3cc(C(=O)NC4CCCCC4)n(C)c3nc12 | 7540 |
| CC(=O)Nc1sc(C)c(C)c1C(=O)OCC(=O)Nc1ccccc1 | 1920 |
| COc1cc2c(cc1OC)C(c1ccccc1)N(C(=O)c1ccccc1F)CC2 (centres undefined) | 608 |
| COc1ccc(/C=N/NC(=O)c2sccc2OCc2ccc(F)cc2)cc1OC | 952 |
| O=C(NC1CCCCC1)c1cccc2c1C(=O)c1ccc(-c3ccc(OC(F)(F)F)cc3)cc1S2(=O)=O | 31.2 |
| Cn1c(=O)[nH]c(=O)c2c1nc(NN)n2CCOc1ccccc1 | 3090 |
| COCCCNC(=O)Cc1c(C)c2c(cc(C)c3c(C(C)(C)C)coc32)oc1=O | 156 |
| O=S(=O)([N-]c1nc2ccccc2nc1-n1cc[n+](Cc2ccccc2)c1)c1ccccc1 | 648 |
| Cc1cnc(C(=O)Nc2ccc(OC(F)(F)F)cc2)cn1 | 3180 |
| CC(Nc1nc(-c2ccccc2)nc2ccccc12)c1ccccc1 (centres undefined) | 379 |
| CC(=O)Nc1ccc(CNc2ncnc3ccc(-c4c(C)noc4C)cc23)cc1 | 264 |
| O=C(NC1CCCCCC1)c1c2c(nc3ccccc13)CCN(Cc1ccccc1)C2 | 3450 |
| COc1cc(Nc2nc3c(N)cc(C(F)(F)F)cc3nc2-c2ccccc2)cc(OC)c1OC | 3870 |
| COc1ccc(/C=C2\CC/C(=C\c3ccc(OC)c(OC)c3)C2=O)cc1OC | 155 |
| CC#CC#Cc1cccc(=O)o1 | 407 |
| N#Cc1c(-c2ccc(F)cc2)c(-c2ccc(F)cc2)nn(CCO)c1=O | 997 |
| COc1cccc(Sc2ccccc2/C=N/NC(N)=O)c1 | 3390 |
| Cn1cc(C(=O)N/N=C/C(Br)=C/c2ccccc2)ccc1=O | 3760 |
| CCc1nc2ccc(C(=O)NCCc3c[nH]c4ccccc34)cn2c1N(C=O)CCC(C)C | 645 |
| Cc1ccc(C(=O)N2CCC(C(=O)Nc3cccc([N+](=O)[O-])c3)CC2)cc1 | 1700 |
